For assay [1], the target named is T1, Substance-K receptor (Homo sapiens, UniProt P21452).
T1 sequence (P21452 whole entry): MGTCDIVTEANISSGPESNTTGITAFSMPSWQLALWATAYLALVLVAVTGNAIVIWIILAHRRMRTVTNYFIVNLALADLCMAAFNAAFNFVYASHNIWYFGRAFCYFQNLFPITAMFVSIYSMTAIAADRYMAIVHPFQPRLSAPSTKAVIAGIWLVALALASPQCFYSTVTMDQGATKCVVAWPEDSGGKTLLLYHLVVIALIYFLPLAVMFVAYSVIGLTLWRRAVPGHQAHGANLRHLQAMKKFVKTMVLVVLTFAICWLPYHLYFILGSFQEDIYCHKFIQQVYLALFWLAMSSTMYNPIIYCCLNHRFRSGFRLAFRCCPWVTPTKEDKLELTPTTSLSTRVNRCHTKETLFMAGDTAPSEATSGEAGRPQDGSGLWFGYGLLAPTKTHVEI
In words: Tested for the biological activity and selectivity against NK-2 receptor.

Assay [2] deals with Substance-P receptor (Homo sapiens, UniProt P25103). In words: Tested for the biological activity and selectivity against NK-1 receptor.
Assay [3] concerns the target T2, Neuromedin-K receptor (Homo sapiens, UniProt P29371).
T2 sequence (P29371 whole entry): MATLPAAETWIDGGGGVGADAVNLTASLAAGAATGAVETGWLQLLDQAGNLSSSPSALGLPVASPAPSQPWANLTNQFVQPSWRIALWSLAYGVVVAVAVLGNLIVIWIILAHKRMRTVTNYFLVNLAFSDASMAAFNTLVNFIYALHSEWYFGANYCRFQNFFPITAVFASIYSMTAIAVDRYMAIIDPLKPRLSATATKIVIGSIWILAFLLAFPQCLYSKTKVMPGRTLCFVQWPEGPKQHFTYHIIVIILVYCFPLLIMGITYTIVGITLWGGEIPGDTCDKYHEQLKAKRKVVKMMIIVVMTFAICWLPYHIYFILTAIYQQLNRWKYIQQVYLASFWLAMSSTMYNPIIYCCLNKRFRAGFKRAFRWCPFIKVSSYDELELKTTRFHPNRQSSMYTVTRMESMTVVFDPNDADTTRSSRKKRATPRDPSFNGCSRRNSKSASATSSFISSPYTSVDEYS
In words: Tested for the biological activity and selectivity against NK-3 receptor.

Starred links: 1 amine or outer side, 2 acyl side, 3 side chain; linkers in the order of their positions; H or OH if unused. Positions of bridges follow the written chain, without caps; N, C: chain ends. Non-standard residues stand in square brackets, D forms with d. Residues, ends and D or L forms follow the SMILES beside them. NGly(3-aminopropyl) = O=C(CN(CCCN[*:3])[*:1])[*:2]; N(2-Aminoethyl)Gly = O=C(CN(CCN[*:3])[*:1])[*:2]; Adipoyl = O=C(CCCCC(=O)[*:2])[*:1]; Glutaryl = O=C(CCCC(=O)[*:2])[*:1]; Suc = O=C(CCC(=O)[*:2])[*:1]

EC50 data for four compounds are collected here from ChEMBL document CHEMBL1127569, “Comparison of the conformation of active and nonactive backbone cyclic analogs of substance P as a tool to elucidate features of the bioactive conformation: NMR and molecular dynamics in DMSO and water” (J Med Chem, 1994).

Sequence of Substance-P receptor (P25103 whole entry): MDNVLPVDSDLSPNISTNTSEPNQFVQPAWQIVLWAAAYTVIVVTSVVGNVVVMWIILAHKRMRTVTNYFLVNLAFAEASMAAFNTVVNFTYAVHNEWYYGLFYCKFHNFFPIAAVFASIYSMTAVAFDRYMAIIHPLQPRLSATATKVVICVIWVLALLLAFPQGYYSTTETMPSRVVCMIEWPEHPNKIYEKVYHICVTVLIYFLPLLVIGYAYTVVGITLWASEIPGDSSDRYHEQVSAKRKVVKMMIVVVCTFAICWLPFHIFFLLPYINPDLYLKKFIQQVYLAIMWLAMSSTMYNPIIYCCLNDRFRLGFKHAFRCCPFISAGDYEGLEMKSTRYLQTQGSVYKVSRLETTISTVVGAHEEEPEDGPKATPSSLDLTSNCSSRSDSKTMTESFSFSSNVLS

Broadly, the EC50 is the concentration giving half of the maximal effect. A high value points to a less potent agent. Take `CSCC[C@H](NC(=O)[C@H](CC(C)C)NC(=O)CN1CCNC(=O)CCC(=O)NCC(=O)N[C@@H](CCCN=C(N)N)C(=O)N[C@@H](Cc2ccccc2)C(=O)N[C@@H](Cc2ccccc2)C1=O)C(N)=O` (GRFF[N(2-Aminoethyl)Gly]LM-NH2; linker N-5 via Suc): the figures for the concentration giving a half-maximal response (EC50) in assay [1], in assay [2] and in assay [3] were > 50 µM, > 10 µM and > 10 µM, respectively.
As for `CSCC[C@H](NC(=O)[C@H](CC(C)C)NC(=O)CN1CCCNC(=O)CCCC(=O)N[C@@H](CCCN=C(N)N)C(=O)N[C@@H](Cc2ccccc2)C(=O)N[C@@H](Cc2ccccc2)C1=O)C(N)=O` (RFF[NGly(3-aminopropyl)]LM-NH2; linker N-4 via Glutaryl), the values for the half-maximal effective concentration (EC50) in assay [1], in assay [2] and in assay [3] were > 50 µM, 0.011 µM and > 10 µM, respectively.
On to `CSCC[C@H](NC(=O)[C@H](CC(C)C)NC(=O)CN1CCCNC(=O)CCC(=O)N[C@@H](CCCN=C(N)N)C(=O)N[C@@H](Cc2ccccc2)C(=O)N[C@@H](Cc2ccccc2)C1=O)C(N)=O` (RFF[NGly(3-aminopropyl)]LM-NH2; linker N-4 via Suc), for which the results for the EC50 in assay [1], in assay [2] and in assay [3] were > 50 µM, 0.18 µM and > 10 µM, respectively.
As for `CSCC[C@H](NC(=O)[C@H](CC(C)C)NC(=O)CN1CCCNC(=O)CCCCC(=O)N[C@@H](CCCN=C(N)N)C(=O)N[C@@H](Cc2ccccc2)C(=O)N[C@@H](Cc2ccccc2)C1=O)C(N)=O` (RFF[NGly(3-aminopropyl)]LM-NH2; linker N-4 via Adipoyl), the EC50 was > 50 µM in assay [1], 0.005 µM in assay [2] and > 10 µM in assay [3].
